Consider five molecules from patent publication US20260015350A1, “AZAQUINAZOLINE PAN-KRAS INHIBITORS” (Mirati Therapeutics, Inc., priority 2022, published 2026).

The subject of assay [1] is KRas-mediated phosphorylation of ERK in AsPC-1 cells. The assay can be described thus: Inhibition of KRas-mediated phosphorylation of ERK (Cisbio HTRF pERK), AsPC-1 cells. It is filed as cell-based. Conditions: Homo sapiens, ASPC1, AsPC-1 cells; HTRF pERK. In short, it runs like this:
(§1)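 Phosphorylated ERK was quantified by HTRF using d2-conjugate and Cryptate antibodies added to lysates for 2 hrs at room temperature.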
Background: In TR-FRET formats the signal depends on donor and acceptor labels being close together.

In assay [2] the test system is KRas-mediated phosphorylation of ERK in H727 cells. The assay can be described thus: Inhibition of KRas-mediated phosphorylation of ERK (Cisbio HTRF pERK), H727 cells. It is filed as cell-based. Conditions: Homo sapiens, NCI-H727, H727 cells; HTRF pERK. In short, it runs like this:
as §1

In assay [3] the test system is KRas-mediated phosphorylation of ERK in MKN1 cells. The assay can be described thus: Inhibition of KRas-mediated phosphorylation of ERK (Cisbio HTRF pERK), MKN1 cells. It is filed as cell-based. Conditions: Homo sapiens, MKN-1. Here is the method: (§2) Inhibition of KRas Phosphorylation of ERK (HTRF) by Exemplary Compounds of Formula (I)
(§3) Cisbio HTRF Advanced PERK Assay Catalog #64AERPEH
(§4) Day 1: Seed 6,000 cells/well-25 μl/well in 384-well white solid bottom plate; RPM1_10% FBS. Incubate overnight at 37° C./5% CO2.
(§5) Incubate for 4 hours at room temperature covered.
(§6) Read HTRF using ClarioStar

Assay [4] relates to KRas-mediated phosphorylation of ERK in PSN1 cells. The assay can be described thus: Inhibition of KRas-mediated phosphorylation of ERK (Cisbio HTRF pERK), PSN1 cells. In kind it is cell-based. Conditions: Homo sapiens. Here is the method: as §2, §3, §4, §5, §6
In a further assay the target is T1, KRas^G12D (Homo sapiens, UniProt P01116, G12D).
T1 construct: Biotinylated KRas (corresponding to amino acids 1-169, produced at Accelegan Inc.); biotin (biotinylated); purchased Accelegan Inc
T1 sequence (P01116 1-169 isoform P01116-2 G12D): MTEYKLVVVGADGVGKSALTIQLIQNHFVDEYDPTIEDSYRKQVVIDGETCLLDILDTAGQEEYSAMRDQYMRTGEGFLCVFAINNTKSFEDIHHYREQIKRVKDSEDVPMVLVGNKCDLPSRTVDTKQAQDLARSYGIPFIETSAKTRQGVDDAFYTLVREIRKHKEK
Put plainly: KRas binding assay (TR-FRET tracer displacement), KRas G12D.

Another assay addresses T2, KRas^G12V (Homo sapiens, UniProt P01116, G12V).
T2 construct: Biotinylated KRas (corresponding to amino acids 1-169, produced at Accelegan Inc.); biotin (biotinylated); purchased Accelegan Inc
The assay can be described thus: KRas binding assay (TR-FRET tracer displacement), KRas G12V.

The target in another assay is T3, KRas^G12R (Homo sapiens, UniProt P01116, G12R).
T3 construct: Biotinylated KRas (corresponding to amino acids 1-169, produced at Accelegan Inc.); biotin (biotinylated); purchased Accelegan Inc
T3 sequence (P01116 1-169 isoform P01116-2 G12R): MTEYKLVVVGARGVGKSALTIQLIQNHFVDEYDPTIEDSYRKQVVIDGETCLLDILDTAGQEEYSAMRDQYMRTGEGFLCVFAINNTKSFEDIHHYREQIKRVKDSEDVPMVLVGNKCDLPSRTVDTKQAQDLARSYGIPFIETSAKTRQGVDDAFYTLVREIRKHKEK
The assay can be described thus: KRas binding assay (TR-FRET tracer displacement), KRas G12R.

Molecules are shown by their SMILES. Bounds are passed on as bounds.

T2 sequence (P01116 1-169 isoform P01116-2 G12V): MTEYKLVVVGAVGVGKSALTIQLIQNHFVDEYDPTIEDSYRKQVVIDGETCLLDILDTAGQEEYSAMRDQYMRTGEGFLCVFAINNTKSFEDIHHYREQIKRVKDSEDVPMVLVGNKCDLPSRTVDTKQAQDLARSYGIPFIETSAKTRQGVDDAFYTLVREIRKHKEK

Broadly, the IC50 is the concentration needed to halve the response being measured. A low value points to greater potency in that assay. In the case of `CCc1c(F)ccc2cc(O)cc(-c3ncc4c(N5CCCn6cnnc6C5)nc(OC[C@@]56CCCN5C[C@H](F)C6)nc4c3F)c12` [Example 563, 4-(4-(6,7-dihydro-5H-[1,2,4]triazolo[4,3-a][1,4]diazepin-8 (9H)-yl)-8-fluoro-2-(((2R,7aS)-2-fluorotetrahydro-1H-pyrrolizin-7a(5H)-yl)methoxy)pyrido[4,3-d]pyrimidin-7-yl)-5-ethyl-6-fluoronaphthalen-2-ol], the IC50 in assay [1] was above 10000 nM; in assay [2] it was above 10000 nM; in assay [3], above 10000 nM; in assay [4], above 10000 nM; on KRas^G12D, 85 nM; at KRas^G12V it was 100 nM. On KRas^G12R, this molecule returned an IC50 of 238 nM.
`CCc1c(F)ccc2cc(O)cc(-c3ncc4c(NCC5CC(CO)NC5=O)nc(OC[C@@]56CCCN5C[C@H](F)C6)nc4c3F)c12` (stereo partly drawn) [Example 575, 3-(((7-(8-ethyl-7-fluoro-3-hydroxynaphthalen-1-yl)-8-fluoro-2-(((2R,7aS)-2-fluorotetrahydro-1H-pyrrolizin-7a(5H)-yl)methoxy)pyrido[4,3-d]pyrimidin-4-yl)amino)methyl)-5-(hydroxymethyl)pyrrolidin-2-one]: the IC50 in assay [1] is above 10000 nM; in assay [2], above 10000 nM; in assay [3], 417 nM; in assay [4], above 10000 nM; on KRas^G12D, 25 nM; on KRas^G12V it was 7 nM. Also, the IC50 at KRas^G12R turned out to be 27 nM.
With `CCc1c(F)ccc2cc(O)cc(-c3ncc4c(N5CCC(S(C)(=N)=O)C5)nc(OC[C@@]56CCCN5C[C@H](F)C6)nc4c3F)c12` (stereo partly drawn) [Example 580, 5-ethyl-6-fluoro-4-(8-fluoro-2-(((2R,7aS)-2-fluorohexahydro-1H-pyrrolizin-7a-yl)methoxy) 4-(3-(S-methylsulfonimidoyl)pyrrolidin-1-yl)pyrido[4,3-d]pyrimidin-7-yl)naphthalen-2-ol], the IC50 in assay [1] is above 10000 nM; in assay [2] it was above 10000 nM; in assay [3] it was 476 nM; in assay [4], above 10000 nM; at KRas^G12D, 296 nM; at KRas^G12V, 81 nM. On KRas^G12R, the IC50 stood at 30 nM.
Regarding `CCc1c(F)ccc2cc(O)cc(-c3ncc4c(N5CCCS(=O)(=O)CC5)nc(OC[C@@]56CCCN5C[C@H](F)C6)nc4c3F)c12` [Example 583, 4-(7-(8-ethyl-7-fluoro-3-hydroxynaphthalen-1-yl)-8-fluoro-2-(((2R,7aS)-2-fluorohexahydro-1H-pyrrolizin-7a-yl)methoxy)pyrido[4,3-d]pyrimidin-4-yl)-1,4-thiazepane 1,1-dioxide], the IC50 in assay [1] was 5380 nM; in assay [2] it was 2500 nM; in assay [3], 312 nM; in assay [4], above 10000 nM; on KRas^G12D, 33 nM; at KRas^G12V, 14 nM. The molecule also came in with an IC50 at KRas^G12R of 3 nM.
As to `CCc1c(F)ccc2cc(O)cc(-c3ncc4c(N5CCC6CNC(=O)NC6C5)nc(OC[C@@]56CCCN5C[C@H](F)C6)nc4c3F)c12` (stereo partly drawn) [Example 592, 7-(7-(8-ethyl-7-fluoro-3-hydroxynaphthalen-1-yl)-8-fluoro-2-(((2R,7aS)-2-fluorohexahydro-1H-pyrrolizin-7a-yl)methoxy)pyrido[4,3-d]pyrimidin-4-yl)octahydropyrido[3,4-d]pyrimidin-2(1H)-one], the IC50 was above 10000 nM in assay [1]; above 10000 nM in assay [2]; above 10000 nM in assay [3]; above 10000 nM in assay [4]; 790 nM on KRas^G12D; 119 nM on KRas^G12V. In addition, the IC50 at KRas^G12R was 281 nM.
